Source: patent publication US9663448B2, “Tri-aryl compounds and compositions comprising the same” (BEN-GURION UNIVERSITY OF THE NEGEV RESEARCH AND DEVELOPMENT …, priority 2007, dated 2017)

Assay: Solubility noted at work-up of the synthesis
Assay type: physicochemical
Details: qualitative remark
Description: 1,1,1-tris(4-hydroxyphenyl)ethane (1.53 gr, 5 mM), formaldehyde (1.35 gr, 45 mM) and 1-methyl piperazine (2.5 ml, 50 mM) in 20 ml water and 25 ml EtOH were refluxed for 3 hours. Evaporation provided a solid that by TLC and NMR contained 2 products, which was not the starting material. Formaldehyde (0.75 gr, 25 mM) and 1-methyl piperazine (1.5 ml, 30 mM) were added to 5 ml water and 10 ml EtOH and the reaction was refluxed for 4 hours. Evaporation and workup gave 3.3 gr light yellow-white solid, 67% yield, mp. […].

solubility in ethanol (solvent ethanol): Soluble
solubility in water (solvent water): very good solubility
SMILES: CN1CCN(Cc2cc(C(C)(c3cc(CN4CCN(C)CC4)c(O)c(CN4CCN(C)CC4)c3)c3cc(CN4CCN(C)CC4)c(O)c(CN4CCN(C)CC4)c3)cc(CN3CCN(C)CC3)c2O)CC1 [VIII]
